From patent US20240261294A1, “METHOD FOR TREATING IDH INHIBITOR-RESISTANT SUBJECTS” (Eli Lilly and Company, priority 2021, published 2024) come the findings set out here.

Numbering of substitutions follows the chain as printed. Read-outs that look alike come from different tables or passages of the source.

The target of one experiment is T1, IDH2 R140L_Q316E cis (Homo sapiens, UniProt P48735, Q316E/R140L).
T1 construct: expressed in transfected cells; host or cells: U-87 MG
T1 sequence (P48735 40-452 R140L/Q316E): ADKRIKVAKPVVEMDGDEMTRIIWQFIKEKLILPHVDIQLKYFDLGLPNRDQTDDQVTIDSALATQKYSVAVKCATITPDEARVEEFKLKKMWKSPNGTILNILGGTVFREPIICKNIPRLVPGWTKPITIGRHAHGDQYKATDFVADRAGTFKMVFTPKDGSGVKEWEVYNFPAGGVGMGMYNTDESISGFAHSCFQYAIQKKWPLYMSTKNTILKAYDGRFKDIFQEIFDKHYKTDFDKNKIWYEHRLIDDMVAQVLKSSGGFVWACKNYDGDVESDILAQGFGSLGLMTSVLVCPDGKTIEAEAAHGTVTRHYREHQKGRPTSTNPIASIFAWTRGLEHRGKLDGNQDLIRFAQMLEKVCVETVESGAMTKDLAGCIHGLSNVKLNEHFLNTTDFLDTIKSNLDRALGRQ
In words: Inhibition of 2-HG production in IDH2 mutant U-87 MG cells. In kind it is cell-based. Particulars: 16 hours incubation, 50K cells/well, 100 μl media/well, read-out: Relative IC50 (nM) Mean, inhibition of 2-HG production.

In a further experiment the target is T2, IDH2 R172W_P167R cis (Homo sapiens, UniProt P48735, P167R/R172W).
T2 construct: expressed in transfected cells; host or cells: U-87 MG
T2 sequence (P48735 40-452 P167R/R172W): T1 sequence (P48735 40-452 R140L/Q316E) with L101R, P128R, R133W, E277Q
The description is as above. In kind it is cell-based. Particulars: read-out: Relative IC50 (nM) Mean, inhibition of 2-HG production.

Take `C=CC(=O)N1CCN([C@@H](CC2CC2)c2ccc([C@H](C)Nc3ncc4c(n3)N(CC)C(=O)OC4)cc2)CC1` [Compound A, 7-[[(1S)-1-[4-[(1S)-2-cyclopropyl-1-(4-prop-2-enoylpiperazin-1-yl)ethyl]phenyl]ethyl]amino]-1-ethyl-4H-pyrimido[4,5-d][1,3]oxazin-2-one]: the IC50 at IDH2 R140L_Q316E cis came out at 145 nM; at IDH2 R172W_P167R cis (16 hours incubation, 50K cells/well, 100 μl media/well), 1280 nM; on IDH2 R172W_P167R cis (72 hours incubation, 12.5K cells/well), 535 nM.
